Source: ChEMBL document CHEMBL1153251, “Biaryl piperidines as potent and selective delta opioid receptor ligands” (Bioorg Med Chem Lett, 2010)

What was measured:
[1] = molecular target: T1, Delta-type opioid receptor (Homo sapiens, UniProt P41143); assay: Displacement of [3H]diprenorphine from human delta opioid receptor expressed in CHO cells by liquid scintillation counting
[2] = molecular target: Kappa-type opioid receptor (Homo sapiens, UniProt P41145); assay: Displacement of [3H]diprenorphine from human kappa opioid receptor expressed in CHO cells by liquid scintillation counting
Chain of Kappa-type opioid receptor (P41145 whole entry): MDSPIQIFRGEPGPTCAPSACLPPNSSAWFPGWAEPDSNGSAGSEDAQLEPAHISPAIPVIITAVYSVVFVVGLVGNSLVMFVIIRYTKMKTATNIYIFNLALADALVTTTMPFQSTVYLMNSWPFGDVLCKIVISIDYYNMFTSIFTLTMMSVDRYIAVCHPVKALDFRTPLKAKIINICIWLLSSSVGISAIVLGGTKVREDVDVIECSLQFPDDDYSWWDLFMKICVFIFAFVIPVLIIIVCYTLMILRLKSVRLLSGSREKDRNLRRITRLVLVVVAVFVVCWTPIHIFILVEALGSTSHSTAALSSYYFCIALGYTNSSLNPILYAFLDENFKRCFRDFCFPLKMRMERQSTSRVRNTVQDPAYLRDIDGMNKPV

[3] = (§1) Clearance in human liver microsomes; type: ADME, Microsome; details: liver microsomes
[4] = molecular target: Mu-type opioid receptor (Homo sapiens, UniProt P35372); assay: Displacement of [3H]diprenorphine from human mu opioid receptor expressed in CHO cells by liquid scintillation counting
Chain of Mu-type opioid receptor (P35372 whole entry): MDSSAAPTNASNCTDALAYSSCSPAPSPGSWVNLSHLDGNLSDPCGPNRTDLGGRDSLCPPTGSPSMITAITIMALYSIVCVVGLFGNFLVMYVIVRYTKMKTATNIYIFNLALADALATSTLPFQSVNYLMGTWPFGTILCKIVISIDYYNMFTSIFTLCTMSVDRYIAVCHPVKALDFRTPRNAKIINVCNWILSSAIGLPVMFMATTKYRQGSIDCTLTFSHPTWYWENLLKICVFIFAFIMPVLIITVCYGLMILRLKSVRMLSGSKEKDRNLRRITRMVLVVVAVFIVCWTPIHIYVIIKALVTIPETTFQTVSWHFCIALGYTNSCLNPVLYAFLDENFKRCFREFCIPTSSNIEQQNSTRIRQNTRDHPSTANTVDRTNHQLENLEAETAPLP

[5] = molecular target: T1, Delta-type opioid receptor; assay: Antagonist activity at delta opioid receptor by GTPgammaS bunding assay; type: functional
[6] = system: Liver microsomes; assay: as §1; type: ADME, Microsome; details: microsomes

T1 sequence (P41143 whole entry): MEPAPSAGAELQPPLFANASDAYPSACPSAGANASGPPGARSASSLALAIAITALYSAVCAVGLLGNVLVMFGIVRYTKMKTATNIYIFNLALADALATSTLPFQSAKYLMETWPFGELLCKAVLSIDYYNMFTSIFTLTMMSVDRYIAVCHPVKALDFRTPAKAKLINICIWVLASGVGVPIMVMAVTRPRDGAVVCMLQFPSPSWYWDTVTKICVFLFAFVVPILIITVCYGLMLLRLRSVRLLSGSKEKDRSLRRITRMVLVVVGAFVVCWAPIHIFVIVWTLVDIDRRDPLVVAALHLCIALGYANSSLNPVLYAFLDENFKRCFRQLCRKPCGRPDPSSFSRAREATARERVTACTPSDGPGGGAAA

Row | SMILES | Ki [1] | Ki [2] | CLint scaled [3] | Ki [4] | IC50 [5] | CL [6]
1 | CCCCN1CCCC(c2ccc(C(=O)N(CC)CC)cc2)(c2cccc(O)c2)C1 (stereo not drawn) | 6.2 nM | > 890 nM | 113 mL/min/kg | > 890 nM | 55 nM | 
2 | CCN(C)C(=O)c1ccc(C2(c3cccc(O)c3)CCCN(CC3CC3)C2)cc1 (stereo not drawn) | 2.2 nM | 66 nM | 70 mL/min/kg | 52 nM |  | 
3 | CCC(O)(CC)c1ccc(C2(c3cccc(C(N)=O)c3)CCN(CC3CC3)CC2)cc1 | 2.3 nM | 79 nM | 26.1 mL/min/kg | > 890 nM | 282 nM | 
4 | CCCC(C)CN1CCC(c2ccc(C(O)(CC)CC)cc2)(c2cccc(C(N)=O)c2)CC1 (stereo not drawn) | 2 nM | 45 nM | 108 mL/min/kg | 380 nM | 4.7 nM | 
5 | CCN(CC)C(=O)c1ccc(C2(c3cccc(C(N)=O)c3)CCCN(Cc3nccs3)C2)cc1 (stereo not drawn) | 7 nM | > 890 nM |  | > 890 nM | 12 nM | Not Active
6 | CC(C)(O)c1ccc(C2(c3cccc(O)c3)CCCN(CC3CC3)C2)cc1 (stereo not drawn) | 39 nM | 41 nM | 22 mL/min/kg | 110 nM |  | 
7 | CCN(CC)C(=O)c1ccc(C2(c3cccc(O)c3)CCN(CC3CC3)CC2)cc1 | 9 nM | 440 nM | 62.9 mL/min/kg | > 890 nM | 155 nM | 
8 | CCN(CC)C(=O)c1ccc(C2(c3cccc(O)c3)CCN(CCc3ccccc3)CC2)cc1 | 0.9 nM | 95 nM | 239 mL/min/kg | 66.5 nM |  | 
9 | CCCC(C)CN1CCC(c2ccc(C(=O)N(CC)CC)cc2)(c2cccc(O)c2)CC1 (stereo not drawn) | 1.8 nM | > 890 nM |  | > 890 nM |  | Not Active
10 | CCN(CC)C(=O)c1ccc(C2(c3cccc(O)c3)CCCN(CC(F)(F)F)C2)cc1 (stereo not drawn) | 2.9 nM | 24 nM | > 300 mL/min/kg | > 890 nM |  | 
11 | CCCC(C)CN1CCC(c2ccc(C(=O)N(C)C)cc2)(c2cccc(O)c2)CC1 (stereo not drawn) | 11 nM | 150 nM | 80 mL/min/kg | > 890 nM | 72 nM | 
12 | CCN(CC)C(=O)c1ccc(C2(c3cccc(O)c3)CCCN(CC3CC3)C2)cc1 (stereo not drawn) | 0.8 nM | 24 nM | 89 mL/min/kg | 35 nM | 7.1 nM | 
13 | CCN(CC)C(=O)c1ccc(C2(c3cccc(O)c3)CCCN(Cc3nccs3)C2)cc1 (stereo not drawn) | 3.5 nM | 163 nM | > 300 mL/min/kg | > 890 nM | 16 nM | 
14 | CCN(CC)C(=O)c1ccc(C2(c3cccc(O)c3)CCCN(Cc3ncc[nH]3)C2)cc1 (stereo not drawn) | 1.2 nM | > 890 nM | 230 mL/min/kg | > 890 nM |  | 
15 | C=CCN1CCC(c2ccc(C(=O)N(CC)CC)cc2)(c2cccc(O)c2)CC1 | 1.9 nM | 347 nM | 34.6 mL/min/kg | > 890 nM |  | 
